Entries after “also recorded” stand apart in the source; their conditions may differ.
How the values were obtained:
[1] = system: kidney and liver function; assay: Chronic feeding of ketone supplements: serum clinical chemistry for kidney and liver function; assay type: in vivo, Sprague Dawley rats; parameters: key: ns = no change from control; conditions: rat serum, 15 weeks, vs SD-fed control
Text: (§1) Male Sprague Dawley rats (N=10/group) were fed ad libitum (approximate dose based on food intake recorded during study) for the study duration (15 weeks).
(§2) Measured Parameters: • Weight • Food/calorie intake • Blood glucose • Blood ketones • Triglycerides • Total Cholesterol • HDL • LDL • Safety/toxicity—serum clinical chemistry tests for kidney and liver function Inflammatory Profile: […]

[2] = Chronic feeding of ketone supplements: weight and caloric intake; assay type: in vivo, Sprague Dawley rats; conditions: for Approximate caloric intake compared to controls: rats, following adaptation to diet (weeks 13-15)
Text: as §1, §2

[3] = system: serum cytokines/chemokines; assay: Chronic feeding of ketone supplements: serum inflammatory profile; assay type: in vivo, Sprague Dawley rats; parameters: key to MIP-1a, change from control / IL-4, change from control / IL-1b, change from control / IL-2, change from control / IL-10, change from control / IFNy, change from control / IL-5, change from control / IL-17a, change from control / IL-18, change from control / MCP-1, change from control / IP-10, change from control / GRO/KC, change from control / VEGF, change from control / LIX, change from control / MIP-2, change from control / TNF-a, change from control / RANTES, change from control / G-CSF, change from control / GM-CSF, change from control / IL-1a, change from control / Leptin, change from control: ↑: Increased from control; ↓: Decreased from control; —: no change; T: Trend towards significance; *p < 0.05; **p < 0.01; ***p < 0.001; conditions: rat serum, 15 weeks
Text: as §1, §2

Ube3a-deficient mice [4] = assay: Induced audiogenic seizures; assay type: in vivo; conditions: for latency to seize: AS treated vs AS control mice, audiogenic seizures
Method: (§3) Mice. Mice with the UBE3A null mutation (AS) were described previously (Jiang Y H et al., Neuron, 1998, 21(4):799-811). All experiments were performed on mice that have been backcrossed to the C57BL/6 line (Jackson Labs, Bar Harbor, Me.) for at least 5 generations. Female C57BL/6 mice containing the null mutation were bred with C57BL/6 (WT) males to produce maternally-deficient AS offspring and WT littermate controls. Audiogenic seizure experiments were performed on mice with the 129/SvEv background, with the same breeding scheme as the C57BL/6 mice. Animals were kept on a 12 hour light-dark cycle and food and water provided ad libitum. All animal testing procedures were approved by the Institutional Animal Care and Use Committee of the University of South Florida and followed the NIH guidelines for the care and use of laboratory animals.
(§4) Ketone ester administration. Control mice received standard rodent chow fed ad libitum. Mice receiving the ketone supplement were administered BD-AcAc2 with their standard rodent chow ad libitum.
Induced audiogenic seizures. Seizures were induced by exposing mice to a 120-dB white noise in a sound-attenuated chamber until seizures occurred or for a maximum of 60 s. Both seizure frequency and threshold (time until seizures began) were recorded.

Ube3a-deficient mice [5] = assay: Rotarod testing; assay type: in vivo; conditions: AS mice, treated vs AS littermate controls
Method: as §3, §4
Rotarod testing. Mice were placed on a rotating rod (Rotarod, Ugo Basile, Italy) that accelerated from 4 to 40 rpm. For two consecutive days, four trials were performed per day with a 45-60 min interval between trials. The maximum duration of each trial was 5 minutes. The time that the mice fell off the rod was recorded. […]

Ube3a-deficient mice [6] = assay: Associative fear conditioning; assay type: in vivo; conditions: AS mice
Method: as §3, §4
Associative fear conditioning. Fear conditioning was used to assess hippocampal function and associative learning and memory. Training included 2 shock-tone (CS/US) pairings. Detailed methods have been previously described (Trotter, J. et al., The Journal of Neuroscience, 2013, 33(39):[…]). […]

[7] = Group weights of AS mice on ketone ester diet; assay type: in vivo; conditions: 10% BD-AcAc2 in chow ad libitum, 8 weeks, vs AS controls
Method: as §3, §4
(§5) The inventors hypothesized that supplemental ketone administration would decrease seizure frequency, increase seizure threshold, and improve hippocampal-dependent cognition and motor learning deficiencies.

Ube3a-deficient mice [8] = assay: Novel object recognition; assay type: in vivo; conditions: AS mice, 24 hours following training
Method: as §3, §4
Novel Object Recognition. Novel object recognition was used to evaluate recognition memory. Following habituation to an open field arena, mice were allowed to explore the arena containing two identical objects for 15 minutes. 24 hours following training, a novel object replaced one of the old objects and mice were allowed to explore for 5 minutes.

Ube3a-deficient mice [9] = assay: Kainic acid-induced seizures; assay type: in vivo; conditions: kainic acid 20 mg/kg i.p.; 10 and 45 minutes post-administration; AS treated vs AS control
Method: as §3, §4
Kainic acid injections. Mice were injected with 20 mg/kg of kainic acid i.p. and were monitored for seizure activity for 45 minutes and behavioral seizure score was recorded (modified Racine's scale).

[10] = Blood glucose and ketone levels in AS mice; assay type: in vivo; conditions: for blood ketones: AS mice on KE diet vs WT and AS controls; for blood glucose: AS mice on KE diet vs WT and AS mice on control diet
Method: as §4
Blood glucose and ketone levels. Blood was collected from the tip of the tail weekly using the Precision Xtra system with both glucose and ketone test strips, each requiring 0.6 μL samples.
as §5

[11] = listed as ketone ester supplement

With `CC(=O)CC(=O)OCCC(C)OC(=O)CC(C)=O` (racemic) [HKE] the “Alanine Aminotransferase (ALT)” value [1] was “Ns”, the Albumin [1] was “Ns” and the “Alkaline Phosphatase (ALP)” value [1] was “Ns”. The “Blood Urea Nitrogen (BUN)” value [1] was “Ns”, the Calcium [1] was “Ns” and the Chloride [1] was “Ns”. For the same compound, the Cholesterol [1] was “Ns”, the Creatinine [1] was “Ns” and the “Gamma Glutamyltransferase (GGT)” value [1] was “Ns”. For the same compound, the Globulin [1] was “Ns”, the Glucose [1] was “Ns” and the Phosphorous [1] was “Ns”. The Potassium [1] was “Ns”, the Sodium [1] was “Ns” and the “Total Bilirubin” value [1] was “Ns”. For the same compound, the “Total Protein” value [1] was “Ns”, the “Approximate caloric intake compared to controls” value [2] was about −7 % kcal and the “Eotaxin, change from control” value [3] was “↓**”. The “Fractalkine, change from control” value [3] was “↑*”, the “G-CSF, change from control” value [3] was “↓T” and the “GM-CSF, change from control” value [3] was “—”. The “GRO/KC, change from control” value [3] was “↓T”, the “IFNy, change from control” value [3] was “↓*” and the “IL-1a, change from control” value [3] was “↓*”. The “IL-1b, change from control” value [3] was “↓*”, the “IL-2, change from control” value [3] was “↓T” and the “IL-4, change from control” value [3] was “—”. The “IL-5, change from control” value [3] was “↓*”, the “IL-6, change from control” value [3] was “↓*” and the “IL-10, change from control” value [3] was “↓T”. For the same compound, the “IL-12(p70), change from control” value [3] was “↓*”, the “IL-13, change from control” value [3] was “↓**” and the “IL-17a, change from control” value [3] was “—”. For the same compound, the “IL-18, change from control” value [3] was “↓T”, the “IP-10, change from control” value [3] was “↓***” and the “LIX, change from control” value [3] was “↓*”. The “Leptin, change from control” value [3] was “↓*”, the “MCP-1, change from control” value [3] was “↓T” and the “MIP-1a, change from control” value [3] was “—”. The “MIP-2, change from control” value [3] was “—”, the “RANTES, change from control” value [3] was “↓**” and the “TNF-a, change from control” value [3] was “—”. The “VEGF, change from control” value [3] was “—”.

In the case of `CC(=O)CC(=O)OCCC(C)OC(=O)CC(C)=O` (racemic) [LKE], the “Alanine Aminotransferase (ALT)” value [1] is reported as “ns”, the Albumin [1] is reported as “ns” and the “Alkaline Phosphatase (ALP)” value [1] is reported as “ns”. The “Blood Urea Nitrogen (BUN)” value [1] was “ns”, the Calcium [1] was “ns” and the Chloride [1] was “ns”. The Cholesterol [1] was “ns”, the Creatinine [1] was “ns” and the “Gamma Glutamyltransferase (GGT)” value [1] was “ns”. The Globulin [1] was “ns”, the Glucose [1] was “ns” and the Phosphorous [1] was “ns”. For the same compound, the Potassium [1] was “ns”, the Sodium [1] was “ns” and the “Total Bilirubin” value [1] was “ns”. The “Total Protein” value [1] was “ns”, the “Approximate caloric intake compared to controls” value [2] was “~+10 % kcal” and the “Eotaxin, change from control” value [3] was “↓T”. For the same compound, the “Fractalkine, change from control” value [3] was “↑**”, the “G-CSF, change from control” value [3] was “—” and the “GM-CSF, change from control” value [3] was “—”. For the same compound, the “GRO/KC, change from control” value [3] was “—”, the “IFNy, change from control” value [3] was “—” and the “IL-1a, change from control” value [3] was “—”. For the same compound, the “IL-1b, change from control” value [3] was “—”, the “IL-2, change from control” value [3] was “—” and the “IL-4, change from control” value [3] was “—”. For the same compound, the “IL-5, change from control” value [3] was “—”, the “IL-6, change from control” value [3] was “↓T” and the “IL-10, change from control” value [3] was “—”. The “IL-12(p70), change from control” value [3] was “↓*”, the “IL-13, change from control” value [3] was “↓T” and the “IL-17a, change from control” value [3] was “—”. For the same compound, the “IL-18, change from control” value [3] was “—”, the “IP-10, change from control” value [3] was “—” and the “LIX, change from control” value [3] was “—”. The “Leptin, change from control” value [3] was “—”, the “MCP-1, change from control” value [3] was “—” and the “MIP-1a, change from control” value [3] was “↑T”. The “MIP-2, change from control” value [3] was “—”, the “RANTES, change from control” value [3] was “—” and the “TNF-a, change from control” value [3] was “—”. For the same compound, the “VEGF, change from control” value [3] was “↑*”.

With `CC(=O)CC(=O)OCCC(C)OC(=O)CC(C)=O` (stereo not drawn) [BD-AcAc2, R,S-1,3-butanediol acetoacetate diester] the audiogenic seizure activity (Ube3a-deficient mice [4]; AS mice after 8 weeks on the diet, listed as ketone ester) was “decreased; also recorded: decreases seizure activity”, the audiogenic seizure frequency (Ube3a-deficient mice [4]; AS treated group after 8 weeks on the diet, 120-dB white noise) was 86% and the latency to seize (Ube3a-deficient mice [4]) was “increases latency to seize”. The latency to seize (Ube3a-deficient mice [4]; listed as ketone ester) was “increased”, the rotarod performance (Ube3a-deficient mice [5]) was “increases rotarod performance” and the “contextual fear conditioning (hippocampal-dependent learning)” value (Ube3a-deficient mice [6]; 24 hours after training) was “improves hippocampal-dependent learning”. The “fear conditioning training phase (freezing)” value (Ube3a-deficient mice [6]; training phase) was “does not affect the fear conditioning training phase”, the “food consumption / caloric intake” value ([2]; male Sprague Dawley rats, fed ad libitum 15 weeks) was “adjusted food consumption to regulate caloric intake to a large extent” and the “body weight / weight gain” value [7] was “normalizes body weight”. For the same compound, the “body weight / weight gain” value [7, 11] was “normalizes weight”, the “novel object recognition memory” value (Ube3a-deficient mice [8]) was “enhances novel object recognition memory” and the “behavioral seizure score (modified Racine's scale)” value (Ube3a-deficient mice [9]) was “significant decrease in behavioral seizure score”. The blood ketones ([10]; listed as KE) was “elevated ketones”, the blood ketones [10, 11] was “increases blood ketone levels” and the blood glucose ([10]; listed as KE) was “decreased blood glucose”. The blood glucose [10, 11] was “decreases blood glucose”.

From patent publication US9795580B2, “Ketone supplements for treatment of angelman syndrome” (priority 2015, dated 2017)
